Each molecule was assayed against T1, recombinant guanylate cyclase reporter cell line (Rattus norvegicus, UniProt P19686+P20595) (assay: B-2. Action on recombinant guanylate cyclase reporter cell line). Settings: MEC = minimal effective concentration; in some cases mean values from individual determinations.
T1 construct: expressed in transfected cells
T1 sequence (P20595 1-619): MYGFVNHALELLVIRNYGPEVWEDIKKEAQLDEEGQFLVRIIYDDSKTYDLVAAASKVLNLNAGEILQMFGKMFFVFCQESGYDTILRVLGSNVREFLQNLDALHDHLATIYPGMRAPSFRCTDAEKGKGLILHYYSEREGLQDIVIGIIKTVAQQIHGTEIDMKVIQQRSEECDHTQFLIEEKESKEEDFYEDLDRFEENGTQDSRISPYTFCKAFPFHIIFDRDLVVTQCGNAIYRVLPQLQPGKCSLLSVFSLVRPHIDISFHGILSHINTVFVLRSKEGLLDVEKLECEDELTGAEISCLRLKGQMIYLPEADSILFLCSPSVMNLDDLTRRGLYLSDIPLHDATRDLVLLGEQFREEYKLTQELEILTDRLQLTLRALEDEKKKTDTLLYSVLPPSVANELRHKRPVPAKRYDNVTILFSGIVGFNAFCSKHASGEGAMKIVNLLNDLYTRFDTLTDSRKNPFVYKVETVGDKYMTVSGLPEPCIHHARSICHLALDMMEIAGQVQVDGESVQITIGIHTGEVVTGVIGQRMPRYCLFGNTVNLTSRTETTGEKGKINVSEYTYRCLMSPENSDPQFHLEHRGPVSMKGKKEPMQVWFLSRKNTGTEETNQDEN
T1 sequence (P19686 1-690): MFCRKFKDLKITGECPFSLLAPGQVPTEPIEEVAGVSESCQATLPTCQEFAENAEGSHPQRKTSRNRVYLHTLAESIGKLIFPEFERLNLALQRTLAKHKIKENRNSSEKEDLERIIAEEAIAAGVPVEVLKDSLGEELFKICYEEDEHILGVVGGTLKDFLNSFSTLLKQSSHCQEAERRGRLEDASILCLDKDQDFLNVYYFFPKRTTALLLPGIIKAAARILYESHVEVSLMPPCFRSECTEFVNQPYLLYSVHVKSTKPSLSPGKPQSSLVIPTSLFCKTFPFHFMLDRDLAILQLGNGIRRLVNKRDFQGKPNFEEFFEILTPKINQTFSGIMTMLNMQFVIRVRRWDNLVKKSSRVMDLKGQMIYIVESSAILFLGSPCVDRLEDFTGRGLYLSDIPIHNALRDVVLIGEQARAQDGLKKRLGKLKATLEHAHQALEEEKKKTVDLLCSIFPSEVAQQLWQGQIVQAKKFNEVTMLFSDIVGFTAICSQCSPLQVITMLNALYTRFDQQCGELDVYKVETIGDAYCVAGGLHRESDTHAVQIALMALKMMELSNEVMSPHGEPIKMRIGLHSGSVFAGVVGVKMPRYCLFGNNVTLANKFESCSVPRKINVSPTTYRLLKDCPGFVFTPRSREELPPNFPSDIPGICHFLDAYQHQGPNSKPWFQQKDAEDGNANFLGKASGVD
Type: cell-based
In short: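 Whole-cell reporter assay with recombinant guanylate cyclase; endpoint = minimal effective concentration.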

| MEC [µM] | Structure (SMILES) |
| --- | --- |
| 0.30 | Cc1cc(OCc2c(F)cccc2F)c2nc(C)c(C(=O)NCC(C)(N)COCc3ccccc3)n2c1 (racemic) [Example 265, rac-N-[2-amino-3-(benzyloxy)-2-methylpropyl]-8-[(2,6-difluorobenzyl)oxy]-2,6-dimethylimidazo[1,2-a]pyridine-3-carboxamide] |
| 1.00 | COC(=O)c1cccc(C(N)CNC(=O)c2c(C)nc3c(OCc4c(F)cccc4F)cc(C)cn23)c1 (racemic) [Example 399, rac-Methyl 3-{1-amino-2-[({8-[(2,6-difluorobenzyl)oxy]-2,6-dimethylimidazo[1,2-a]pyridin-3-yl}carbonyl)amino]ethyl}benzoate] |
| 0.10 | Cc1cc(OCc2c(F)cccc2F)c2nc(C)c(C(=O)NCC(N)CC(F)(F)F)n2c1 (single isomer, unassigned) [Example 129, ent-N-(2-Amino-4,4,4-trifluorobutyl)-8-[(2,6-difluorobenzyl)oxy]-2,6-dimethylimidazo[1,2-a]-pyridine-3-carboxamide] |
| 0.30 | Cc1cc(OCc2c(F)cccc2F)c2nc(C)c(C(=O)NCC(N)c3ccc(C)o3)n2c1 (racemic) [Example 369, rac-N-[2-amino-2-(5-methyl-2-furyl)ethyl]-8-[(2,6-difluorobenzyl)oxy]-2,6-dimethylimidazo[1,2-a]pyridine-3-carboxamide] |
| 1.00 | Cc1nc2c(OCc3c(F)cccc3F)cc(Cl)cn2c1C(=O)NCC1CCCCN1 (single isomer, unassigned; ent-6) [Example 191, ent-6-Chloro-8-[(2,6-difluorobenzyl)oxy]-2-methyl-N-(piperidin-2-ylmethyl)imidazo[1,2-a]-pyridine-3-carboxamide] |
| 0.30 | CCCC(C)(N)CNC(=O)c1c(C)nc2c(OCc3c(F)ccc(OC)c3F)cc(C)cn12 (stereo not drawn) [Example 364, ent-N-(2-amino-2-methylpentyl)-8-[(2,6-difluoro-3-methoxybenzyl)oxy]-2,6-dimethylimidao[1,2-a]pyridine-3-carboxamide] |
| 0.40 | Cc1nc2c(OCc3c(F)cccc3F)cccn2c1C(=O)NCC1(N)CC1 [Example 38, N-[(1-aminocyclopropyl)methyl]-8-[(2,6-difluorobenzyl)oxy]-2-methylimidazo[1,2-a]-pyridine-3-carboxamide] |
| 0.30 | Cc1nc2c(OCc3c(F)cccc3F)cc(Cl)cn2c1C(=O)NCC(N)CC(F)(F)F (single isomer, unassigned) [Example 192, ent-N-(2-Amino-4,4,4-trifluorobutyl)-6-chloro-8-[(2,6-difluorobenzyl)oxy]-2-methylimidazo[1,2-a]pyridine-3-carboxamide] |
| 0.30 | Cc1cc(OCc2c(F)cccc2F)c2nc(C)c(C(=O)NC(CN)c3cc(F)c(F)c(F)c3)n2c1 (racemic) [Example 390, rac-N-[2-amino-1-(3,4,5-trifluorophenyl)ethyl]-8-[(2,6-ifluorobenzyl)oxy]-2,6-dimethylimidazo[1,2-a]pyridine-3-carboxamide] |
| 0.30 | Cc1nc2c(OCc3c(F)cccc3F)cccn2c1C(=O)NC(CN)CC(F)(F)F (single isomer, unassigned; enantiomer b) [Example 3, ent-N-(1-Amino-4,4,4-trifluorobutan-2-yl)-8-[(2,6-difluorobenzyl)oxy]-2-methylimidazo[1,2-a]-pyridine-3-carboxamide (Enantiomer B)] |
| 1.00 | Cc1nc2c(OCc3c(F)cccc3F)cccn2c1C(=O)NCCN(C(C)C)C(C)C [Example 88, 8-[(2,6-difluorobenzyl)oxy]-N-[2-(diisopropyl-amino)ethyl]-2-methylimidazo[1,2-a]pyridine-3-carboxamide] |
| 0.03 | Cc1nc2c(OCc3c(F)cccc3F)cccn2c1C(=O)NC1CCNc2ccc(F)cc21 (single isomer, unassigned; ent-8) [Example 106, ent-8-[(2,6-difluorobenzyl)oxy]-N-(6-fluoro-1,2,3,4-tetrahydroquinolin-4-yl)-2-methylimidazo[1,2-a] pyridine-3-carboxamide] |
| 1.00 | Cc1nc2c(OCc3c(F)cccc3F)cccn2c1C(=O)NCC(N)C(C)C (single isomer, unassigned) [Example 229, ent-N-(2-Amino-3-methylbutyl)-8-[(2,6-difluorobenzyl)oxy]-2-methylimidazo[1,2-a]pyridine-3-carboxamide] |
| 1.00 | CCCC(C)(N)CNC(=O)c1c(C)nc2c(OC(C)c3c(F)cccc3F)cc(C)cn12 (stereo not shown) [Example 257, N-(2-Amino-2-methylpentyl)-8-[1-(2,6-difluorophenyl)ethoxy]-2,6-dimethylimidazo[1,2-a]-pyridine-3-carboxamide] |
| 0.10 | CSCCC(N)CNC(=O)c1c(C)nc2c(OCc3c(F)cccc3F)cc(C)cn12 (racemic) [Example 412, rac-N-[2-amino-4-(methylsulfanyl)butyl]-8-[(2,6-difluorobenzyl)oxy]-2,6-dimethylimidazo[1,2-a]pyridine-3-carboxamide] |
| 0.30 | Cc1nc2c(OCc3c(F)cccc3F)cccn2c1C(=O)NCC1(N)CCCC1 [Example 41, N-[(1-aminocyclopentyl)methyl]-8-[(2,6-difluorobenzyl)oxy]-2-methylimidazo[1,2-a]-pyridine-3-carboxamide] |
| 0.30 | Cc1cc(OCc2c(F)cccc2F)c2nc(C)c(C(=O)NCCNC(C)(C)C)n2c1 [Example 255, N-[2-(tert-Butylamino)ethyl]-8-[(2,6-difluorobenzyl)oxy]-2,6-dimethylimidazo[1,2-a]pyridine-3-carboxamide] |
| 1.00 | Cc1nc2c(OCc3c(F)cccc3F)cccn2c1C(=O)NCC(N)C(C)C (single isomer, unassigned) [Example 228, ent-N-(2-Amino-3-methylbutyl)-8-[(2,6-difluorobenzyl)oxy]-2-methylimidazo[1,2-a]pyridine-3-carboxamide] |
| 0.30 | CCCC(C)(N)CNC(=O)c1c(C)nc2c(OCc3c(F)cccc3F)cc(Cl)cn12 (single isomer, unassigned) [Example 246, ent-N-(2-Amino-2-methylpentyl)-6-chloro-8-[(2,6-difluorobenzyl)oxy]-2-methylimidazo[1,2-a]-pyridine-3-carboxamide] |
| 0.30 | Cc1nc2c(OCc3c(F)cccc3F)cc(Cl)cn2c1C(=O)NCCC(C)(C)N [Example 104, N-(3-Amino-3-methylbutyl)-6-chloro-8-[(2,6-difluorobenzyl)oxy]-2-methylimidazo[1,2-a]-pyridine-3-carboxamide] |
| 1.00 | Cc1cc(OCc2c(F)cccc2F)c2nc(C)c(C(=O)NCCN3CCN(C)CC3)n2c1 [Example 137, 8-[(2,6-difluorobenzyl)oxy]-2,6-dimethyl-N-[2-(4-methylpiperazin-1-yl)ethyl]imidazo[1,2-a]-pyridine-3-carboxamide] |
| 0.30 | COc1cccc(C(CN)NC(=O)c2c(C)nc3c(OCc4c(F)cccc4F)cc(C)cn23)c1 (racemic) [Example 382, rac-N-[2-amino-1-(3-methoxyphenyl)ethyl]-8-[(2,6-difluorobenzyl)oxy]-2,6-dimethylimidazo[1,2-a]pyridine-3-carboxamide] |
| 0.65 | Cc1cc(OCc2c(F)cccc2F)c2nc(C)c(C(=O)NCC(N)C#N)n2c1 (racemic) [Example 400, rac-N-(2-amino-2-cyanoethyl)-8-[(2,6-difluorobenzyl)oxy]-2,6-dimethylimidazo[1,2-a]pyridine-3-carboxamide] |
| 1.00 | Cc1nc2c(OCc3c(F)cccc3F)cccn2c1C(=O)NCC(C)(N)CC(C)C (single isomer, unassigned) [Example 204, ent-N-(2-Amino-2,4-dimethylpentyl)-8-[(2,6-difluorobenzyl)oxy]-2-methylimidazo[1,2-a]pyridine-3-carboxamide] |
| 0.10 | Cc1cc(OCc2c(F)cccc2F)c2nc(C)c(C(=O)NCC(C)(N)CC(C)C)n2c1 (single isomer, unassigned) [Example 220, ent-N-(2-Amino-2,4-dimethylpentyl)-8-[(2,6-difluorobenzyl)oxy]-2,6-dimethylimidazo[1,2-a]-pyridine-3-carboxamide] |

From patent publication US9624214B2, “Amino-substituted imidazo[1,2-a]pyridinecarboxamides and their use” (BAYER PHARMA AKTIENGESELLSCHAFT, priority 2012, dated 2017)
